{"source": "patent US20240415845A1", "about": "“Compositions of Iboga Alkaloids and Methods of Treatment” (priority 2022, published 2024)", "tested_on": "special operations veterans with combat and/or blast exposure", "test": "MRI-based predicted brain age (machine learning model)", "type": "in vivo, human", "conditions": "for brain age estimate: baseline 40.89 years; for Brain age, Cohen's d / Brain age, Mean Difference: N 24", "text": "In another aspect, a method for slowing or reversing brain aging in a subject is provided. In an embodiment, the subject is a person a healthy individual or is a person with TBI or with TBI and PTSD or a person at risk of one or both of TBI and PTSD. The method comprises treating the subject with ibogaine, as described herein. Neuroimaging data can be used to predict chronological age in healthy individuals, using machine learning. Neuroimaging-derived age predictions have been explored in the context of different brain diseases (Cole, et al., NeuroImage, 163:115-124 (2017): Cole, et al., Trends in Neurosciences, 40(12):681 (2017))). By training models on healthy individuals, brain-based predictions of age can be made in independent clinical samples. If ‘brain-predicted age’ is greater than an individual's chronological age, this is thought to reflect some aberrant accumulation of age-related changes to the brain (Id.). […] A predictive model of normal ageing defined using machine learning in healthy individuals, based on magnetic resonance imaging-derived estimates of gray matter and white matter (Id.) was applied to the MRI images from the subjects enrolled in the study of Example 1. […] There was a significant reversal of brain age from baseline to one month after treatment. The mean decrease in brain age was 1.3 years (corrected p=0.03).\nAt baseline, the brain age estimate for the 24 subjects was 40.89 years. […] The average decrease in brain age from baseline one month after treatment was 1.4 years.", "key": {"[1]": {"conditions": "contrast 1 wk post − 1 mo. post"}, "[2]": {"conditions": "contrast immediate post (~1 wk) − baseline"}, "[3]": {"conditions": "one month after treatment, 24 subjects"}}, "data": [{"compound": "CCC1CC2CC3c4[nH]c5ccc(OC)cc5c4CCN(C2)C13", "note": "(stereo not shown) [ibogaine, Ibogaine]", "values": [{"measurement": "Brain age, contrast Estimate", "setting": "Baseline & 1 wk. vs 1 mo., weights .5-.5-1", "value": 1.220, "unit": "years"}, {"measurement": "Brain age, contrast Estimate", "setting": "Baseline vs. 1 wk and 1 mo., weights 1-.5-.5", "value": 0.892, "unit": "years"}, {"measurement": "brain age estimate", "setting": "about one week after treatment, 24 subjects", "value": 40.52, "unit": "years"}, {"measurement": "mean decrease in predicted brain age", "setting": "baseline to one month after treatment, corrected p=0.03 (FIG. 19A)", "value": 1.3, "unit": "years"}, {"measurement": "Brain age, Cohen's d", "setting": "contrast 1-mo. post − baseline", "value": "−0.6137"}, {"measurement": "Brain age, Mean Difference", "setting": "contrast 1-mo. post − baseline", "value": "−1.408", "unit": "Years"}, {"measurement": "Brain age, Cohen's d", "setting": "[1]", "value": "−0.4729"}, {"measurement": "Brain age, Mean Difference", "setting": "[1]", "value": "−1.031", "unit": "Years"}, {"measurement": "Brain age, Cohen's d", "setting": "[2]", "value": "−0.2114"}, {"measurement": "Brain age, Mean Difference", "setting": "[2]", "value": "−0.3764", "unit": "Years"}, {"measurement": "average decrease in brain age from baseline", "setting": "[3]", "value": 1.4, "unit": "years"}, {"measurement": "brain age estimate", "setting": "[3]", "value": 39.48, "unit": "years"}, {"measurement": "estimated brain age compared to accelerated intermittent theta burst stimulation (aiTBS)", "setting": "one-month post treatment (FIG. 19D)", "value": "reducing in estimated brain age"}]}]}
